In ChEMBL document CHEMBL5532682, “Recent advances of tryptanthrin and its derivatives as potential anticancer agents” (RSC Med Chem, 2024):
Values belong to the compound of their own block, whether it stands above or below them.

What was measured:
[1] = test system: A549; assay: Antiproliferative activity against human A549 cells; format: functional, cell-based
[2] = Antiproliferative activity against mouse MC3T3-E1 cells; format: toxicity, cell-based
[3] = test system: HCT-116; assay: Antiproliferative activity against human HCT-116 cells measured after 48 hrs by MTT assay; format: functional, cell-based; settings: HCT-116, 48 h
[4] = test system: MDA-MB-231; assay: Antiproliferative activity against human MDA-MB-231 cells measured after 48 hrs by MTT assay; format: functional, cell-based; settings: MDA-MB-231, 48 h
[5] = test system: A549; assay: Antiproliferative activity against human A549 cells measured after 48 hrs by MTT assay; format: functional, cell-based; settings: A549, 48 h
[6] = test system: HCT-116; assay: Antiproliferative activity against human HCT-116 cells measured after 48 hrs; format: functional, cell-based; settings: HCT-116, 48 h
[7] = test system: MDA-MB-231; assay: Antiproliferative activity against human MDA-MB-231 cells measured after 48 hrs; format: functional, cell-based; settings: MDA-MB-231, 48 h
[8] = test system: A549; assay: Antiproliferative activity against human A549 cells measured after 48 hrs; format: functional, cell-based; settings: A549, 48 h
[9] = test system: MCF7; assay: Antiproliferative activity against human MCF7 cells assessed as inhibition of cell growth; format: functional, cell-based
[10] = test system: HeLa; assay: Antiproliferative activity against human HeLa cells assessed as inhibition of cell growth; format: functional, cell-based
[11] = test system: A549; assay: Antiproliferative activity against human A549 cells assessed as inhibition of cell growth; format: functional, cell-based
[12] = test system: HT-29; assay: Antiproliferative activity against human HT-29 cells; format: functional, cell-based
[13] = Cytotoxicity activity against human HDF cells; format: toxicity, cell-based; settings: HDF cells (NHDF)
[14] = test system: PANC-1; assay: Antiproliferative activity against human PANC-1 cells; format: functional, cell-based
[15] = test system: MDA-MB-231; assay: Antiproliferative activity against human MDA-MB-231 cells; format: functional, cell-based

IC50 [1]: > 100 µM
Structure (SMILES): O=C1c2ccccc2-n2c1nc1cc(Cl)ccc1c2=O
IC50 [2]: > 100 µM

IC50 [3]: 1.62 µM | IC50 [4]: 48.3 µM | IC50 [5]: > 100 µM
Structure (SMILES): CCN(CC)c1cccc2c1C(=O)c1nc3ccccc3c(=O)n1-2

IC50 [6]: > 100 µM | IC50 [7]: > 100 µM | IC50 [3]: > 100 µM | IC50 [4]: > 100 µM | IC50 [5]: > 100 µM | IC50 [8]: > 100 µM
Structure (SMILES): O=C1c2c(N3CCCCC3)cccc2-n2c1nc1ccccc1c2=O

IC50 [3]: 45.6 µM | IC50 [4]: > 100 µM | IC50 [5]: > 100 µM
Structure (SMILES): CN1CCN(c2cccc3c2C(=O)c2nc4ccccc4c(=O)n2-3)CC1

IC50 [6]: 1.62 µM | IC50 [7]: 48.3 µM | IC50 [3]: 90 µM | IC50 [4]: 56.1 µM | IC50 [5]: 13.7 µM | IC50 [8]: > 100 µM
Structure (SMILES): O=C1c2c(N3CCOCC3)cccc2-n2c1nc1ccccc1c2=O

IC50 [3]: > 100 µM | IC50 [4]: 89.7 µM | IC50 [5]: > 100 µM
Structure (SMILES): CN(C)c1c(F)ccc2c1C(=O)c1nc3ccccc3c(=O)n1-2

IC50 [1]: > 100 µM
Structure (SMILES): O=C1c2ccccc2-n2c1nc1ccc(Cl)c(Cl)c1c2=O
IC50 [2]: > 100 µM

IC50 [6]: > 100 µM | IC50 [7]: > 100 µM | IC50 [8]: > 100 µM
Structure (SMILES): CN(C)c1cccc2c1C(=O)c1nc3ccccc3c(=O)n1-2

IC50 [3]: 25.7 µM | IC50 [4]: 14.7 µM | IC50 [5]: 18.6 µM
Structure (SMILES): CN(C)c1c(Cl)ccc2c1C(=O)c1nc3ccccc3c(=O)n1-2

IC50 [3]: > 100 µM | IC50 [4]: 32.8 µM | IC50 [5]: 22.8 µM
Structure (SMILES): O=C1c2c(ccc(Cl)c2N2CCN(CCO)CC2)-n2c1nc1ccccc1c2=O

IC50 [1]: 1.03 µM
Structure (SMILES): O=C1c2c(ccc(F)c2Cl)-n2c1nc1cc(Cl)ccc1c2=O
IC50 [2]: 82 µM

IC50 [3]: > 100 µM | IC50 [4]: > 100 µM | IC50 [5]: > 100 µM
Structure (SMILES): CN1CCN(c2c(Cl)ccc3c2C(=O)c2nc4ccccc4c(=O)n2-3)CC1

IC50 [3]: 2.01 µM | IC50 [4]: 0.8 µM | IC50 [5]: 1.2 µM
Structure (SMILES): CCN(CC)c1c(F)ccc2c1C(=O)c1nc3ccccc3c(=O)n1-2

IC50 [3]: > 100 µM | IC50 [4]: 58.7 µM | IC50 [5]: > 100 µM
Structure (SMILES): Cc1ccc2c(c1N1CCOCC1)C(=O)c1nc3ccccc3c(=O)n1-2

IC50 [3]: > 100 µM | IC50 [4]: > 100 µM | IC50 [5]: > 100 µM
Structure (SMILES): Cc1ccc2c(c1N1CCN(CCO)CC1)C(=O)c1nc3ccccc3c(=O)n1-2

Continued, compound first:

Structure (SMILES): O=C1C2C=CC=CC2=NC2/C(=N\Nc3nc(-c4ccc(O)cc4)cs3)c3ccccc3N12 (stereo not drawn)
IC50 [9]: 31.6 µM | IC50 [10]: 7.22 µM | IC50 [11]: 28.8 µM

Structure (SMILES): O=C1c2ccccc2-n2c1nc1ccc(F)c(Cl)c1c2=O
IC50 [1]: > 100 µM | IC50 [2]: > 100 µM

Structure (SMILES): Cc1nn(Cl)c2c1[C@@]1(C(C#N)=C(N)O2)c2ccccc2-n2c1nc1ccccc1c2=O
IC50 [12]: 77.4 µM | IC50 [13]: > 100 µM | IC50 [14]: 49.4 µM | IC50 [15]: 47.9 µM

Structure (SMILES): COc1ccc(-c2cs/c(=N/N=C3/c4ccccc4-n4c3nc3ccccc3c4=O)n2-c2ccccc2)cc1
IC50 [9]: 52.3 µM | IC50 [10]: 40.2 µM | IC50 [11]: 63 µM

Structure (SMILES): O=C1c2c(N3CCN(c4ccccn4)CC3)cccc2-n2c1nc1ccccc1c2=O
IC50 [6]: > 100 µM | IC50 [7]: > 100 µM | IC50 [3]: > 100 µM | IC50 [4]: > 100 µM | IC50 [5]: > 100 µM | IC50 [8]: > 100 µM

Structure (SMILES): O=C1c2c(ccc(F)c2N2CCN(C(=O)c3ccco3)CC2)-n2c1nc1ccccc1c2=O
IC50 [6]: > 100 µM | IC50 [7]: > 100 µM | IC50 [3]: > 100 µM | IC50 [4]: > 100 µM | IC50 [5]: > 100 µM | IC50 [8]: > 100 µM

Structure (SMILES): Cc1n[nH]c2c1[C@@]1(C(C#N)=C(N)O2)c2ccccc2-n2c1nc1ccccc1c2=O
IC50 [12]: 90.4 µM | IC50 [13]: > 100 µM | IC50 [14]: 21.4 µM | IC50 [15]: 60.8 µM

Structure (SMILES): O=C1c2c(ccc(Cl)c2N2CCN(c3ccccn3)CC2)-n2c1nc1ccccc1c2=O
IC50 [3]: > 100 µM | IC50 [4]: > 100 µM | IC50 [5]: > 100 µM

Structure (SMILES): COc1ccc(-c2csc(N/N=C3/c4ccccc4N4C(=O)C5C=CC=CC5=NC34)n2)cc1 (stereo not drawn)
IC50 [9]: 45.9 µM | IC50 [10]: 65.5 µM | IC50 [11]: 52 µM

Structure (SMILES): O=C1c2c(N3CCN(CCO)CC3)cccc2-n2c1nc1ccccc1c2=O
IC50 [3]: > 100 µM | IC50 [4]: 34.2 µM | IC50 [5]: > 100 µM

Structure (SMILES): N#Cc1ccc(-c2cs/c(=N/N=C3/c4ccccc4-n4c3nc3ccccc3c4=O)n2-c2ccccc2)cc1
IC50 [9]: 44.4 µM | IC50 [10]: 43.8 µM | IC50 [11]: 28.8 µM

Structure (SMILES): O=c1c2ccccc2nc2n1-c1ccccc1/C2=N/N=c1/scc(-c2ccc(Cl)cc2)n1-c1ccccc1
IC50 [9]: 46.1 µM | IC50 [10]: 75.2 µM | IC50 [11]: 65.5 µM

Structure (SMILES): Cc1ccc2c(c1N1CCN(c3ccccn3)CC1)C(=O)c1nc3ccccc3c(=O)n1-2
IC50 [3]: > 100 µM | IC50 [4]: > 100 µM | IC50 [5]: > 100 µM

Structure (SMILES): O=C1c2cc(Cl)c(N3CCCCC3)cc2-n2c1nc1ccccc1c2=O
IC50 [6]: > 100 µM | IC50 [7]: > 100 µM | IC50 [8]: > 100 µM

Structure (SMILES): O=c1c2ccccc2nc2n1-c1ccccc1/C2=N/N=c1/scc(-c2ccc(Br)cc2)n1-c1ccccc1
IC50 [9]: 31.6 µM | IC50 [10]: 55.5 µM | IC50 [11]: 64.9 µM

Structure (SMILES): Cc1ccc2c(c1N1CCNCC1)C(=O)c1nc3ccccc3c(=O)n1-2
IC50 [3]: 67.2 µM | IC50 [4]: 69.8 µM | IC50 [5]: > 100 µM
